Laboratory results from patent EP0309120A2, “Atrial hypotensive peptide” (QUEEN'S UNIVERSITY AT KINGSTON, priority 1987, dated 1989).
Ends that are not written are not given here.

Tests used:
[1] = test system: antiserum to iso-rANP(1-20) (P2A); assay: Radioimmunoassay (RIA) with anti-P2A antiserum and 125I-P2A-Y tracer; assay type: binding, New Zealand white rabbits; settings: antiserum used for the RIA
Text: The procedure was repeated to produce the same 20 amino acid residue fragment with a tyrosine residue attached to the N-terminal serine. The 20-residue peptide (P2A) was mixed with Freund's complete adjuvant and injected subcutaneously into New Zealand white rabbits. After boosting at 5 weeks after the initial injection the rabbits were bled 1 week later. […] Tyrosinated P2A (P2A-Y) was iodinated using the chloramine T method and the iodinated tracer was purified by HPLC on a Waters µBondapak C₁₈ column. For radioimmunossay (RIA) the buffer contained 0.1M NaHPO₄ buffer, pH 7.4, 0.05M NaCl, 0.1% BSA and 0.02% […]. The RIA incubation mixture contained 3-100 pg of P2A in 100 µ l of buffer, 100 µl of diluted antiserum and 100 µl of ¹²⁵I-P2A-Y (approx. 8000 cpm). After incubation overnight at 4°C bound and free iodinated peptide were separated by second antibody precipitation using goat anti-rabbit - globulin. The sensitivity of the assay was 2-3 pg/tube with 50% displacement at 25-30 pg/tube.
The RIA was then used to monitor the purification of the peptide de novo from atrial extracts using gel-filtration and reverse-phase HPLC. The procedure used was essentially the same as the one briefly described above for the purification of ANP, except that the initial extraction and the gel-filtration stages were done in the presence of several protease inhibitors.

bioassay rats = assay: Bolus injection into anesthetized bioassay rats: urinary and cardiovascular responses; assay type: in vivo, male Sprague-Dawley rats
Description: Experiments were performed using male Sprague-Dawley rats, ranging in weight from 270-362 g. The rats were anesthetized by an intraperitoneal injection of sodium pentobarbital (70 mg.kg-1; MTC Pharmaceuticals, Hamilton, Ont.). Additional small amounts of anesthetic were administered as required in the course of the experiment. […] After installing a tracheal cannula, a femoral vein was cannulated and a priming infusion of saline (0.9% NaCl) was administered over a 20 min period (1.1 ml); this was followed by a maintenance saline infusion of 1.2 ml.h-1. The femoral artery was then cannulated for blood pressure measurement (Statham pressure transducer, model P23Db). A catheter was also advanced via the right external jugular vein towards the right heart for bolus injections of vehicle, ANF or the atrial peptide of the present invention (AHP). After tying off the penis, the bladder was cannulated for urine collection. Rates were not used or experiments aborted if the urine became bloody. The EKG was recorded for determination of heart rate.
Urine was collected in preweighed vials and volume calculated by weighing. The time for sequential urine collections was 5 min or, increments of 4 min until there was enough urine volume for electrolyte determinations (0.25 ml or 16 drops). Rat kidneys were removed at the termination of the experiments so that urinary excretion measurements could be normalized for total kidney weight. Measurements of NA+ and K+ were obtained using ion specific electrodes and Cl- was obtained by coulometric titration.
Zero time was established by 40-60 mins from the beginning the priming saline infusion. The control measurements were carried out over 20 mins or, until there was sufficient urine collection for electrolyte determinations. A bolus injection of vehicle, rANP(99-126) or iso-rANP(1-46) or iso-rANP(17-46) was then administered into the jugular vein catheter and the catheter immediately cleared of remaining injectate by a secondary bolus of 0.2 ml saline. The rANP(99-126) was obtained from Armand-Frappier, Montreal. Cardiovascular measurements were analyzed at 5 min intervals during control and at 1, 5, 10, 15 and 20 mins following administration of injectate. […] Thus, residues 17-46 of the native peptide represent a functional, as well as structural, homologue of both ANP and BNP. Moreover, it would appear that residues 1-20 of iso-rANP(1-46) are not required for biological activity. […] It required twice the dose of iso-rANP(17-46) (1.5 nanomol) to produce equivalent average decreases in mean arterial blood pressure and heart rate as rANP(99-126) (0.7 nanomol). […] Variability of response of assay rats to injected peptides is evident from the rather larger variances (SEM).

[2] = test system: Aortic rings (thoracic aortae); assay: Vasorelaxant activity on phenylephrine-contracted aortic rings; design: species or system New Zealand White rabbits
Description: Aortic rings (3-4mm) were cut from the thoracic aortae of New Zealand White rabbits. The rings were suspended in a 10 ml tissue bath containing Kreb's Ringer Solution, pH 7.4 at 37°C. The rings were maintained at about 70% of maximal contraction with phenylephrine in doses ranging from 1 x 10⁻⁶ to 5 x 10⁻⁸M. Vasorelaxant activity or peptides was tested by adding various concentrations of peptide to the bath.

Substance	cross-reaction with antiserum [1]	effect in increasing urinary volume as well as Na+, K+ and Cl- excretion (bioassay rats; 3.0 nanomol, four-fold larger dose than rANP(99-126), compared with rANP(99-126))	potency compared with rANP(99-126) (bioassay rats; as shown in Table 1, result in words)	dose to produce equivalent average decreases in mean arterial blood pressure and heart rate (bioassay rats; bolus into jugular vein catheter) [nmol]	urinary responses (bioassay rats; dose 0.9 nmol)	additional effect on cardiovascular responses (mean arterial blood pressure, heart rate) (bioassay rats; dose increased to 3.0 nanomol)	diuretic, natriuretic, hypotensive and bradycardic responses (bioassay rats; injected into bioassay rats, result in words)	smooth muscle vaso-relaxant activity ([2]; rabbit aortic rings at about 70% of maximal contraction with phenylephrine, result in words)	higher dose required to produce the same relaxation obtained by 50 ng of rANP(99-126) ([2]; rabbit aortic rings, relative to 50 ng of rANP(99-126)) [fold]	potency compared with ANP(99-126) ([2]; rabbit aortic rings, result in words)
ANP: atrial natriuretic peptide, length not specified at this place	did not cross-react									
MAHSSSCFGEKIDRIGAVSRLGCDILLIAQ (cysteine pairing not given here) [iso-rANP(17-46), chemically synthesized peptide corresponding to residues 17-46 of iso-rANP(1-46)]		somewhat lesser effect	somewhat less than rANP(99-126)	1.5	only a small effect in most rats	no additional effect	elicited diuretic, natriuretic, hypotensive and bradycardic responses qualitatively similar to both the native peptide and rANP	showed smooth muscle vaso-relaxant activity	20	less potent
